Experimental data published in patent publication US8119614B2, “Substitution derivatives of N6-benzyladenosine, methods of their preparation, their use for preparation of drugs, cosmetic preparations and growth regulators, pharmaceutical preparations, cosmetic preparations and growth regulators containing these compounds” (Ustav Experimentalni Botaniky Akademie Ved Ceske Republiky, priority 2002, dated 2012).

Key:
[1] = tested on: HOS; test: In vitro cytotoxic activity, Calcein AM assay, HOS; type: cell-based; conditions: 72 hours
[2] = tested on: human erythroleukaemia K562; test: In vitro cytotoxic activity, Calcein AM assay, K-562; type: cell-based; conditions: 72 hours, read-out: IC 50 K-562
Summary of the method: (§1)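 Following 24 h pre-incubation of 10^4 cells per well, test compound is added in six 4-fold steps and left for 72 h at 37 °C. Surviving cells are quantified by Calcein AM cleavage (1 h), and GI50 is calculated from the dose-response curve.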

[3] = tested on: breast carcinoma cell lines MCF-7; test: In vitro cytotoxic activity, Calcein AM assay, MCF7; type: cell-based, human; conditions: 72 hours, read-out: IC 50 MCF7
Summary of the method: as §1

[4] = tested on: mouse fibroblasts NIH3T3; test: In vitro cytotoxic activity, Calcein AM assay, NIH-3T3; type: cell-based; conditions: 72 hours, read-out: IC 50 NIH-3T3
Summary of the method: as §1

[5] = tested on: Human T-lymphoblastic leukemia cell line CEM; test: In vitro cytotoxic activity, Calcein AM assay, CEM; type: cell-based; conditions: 72 hours
Summary of the method: as §1

[6] = tested on: promyelocytic HL-60; test: In vitro cytotoxic activity, Calcein AM assay, HL60; type: cell-based, human; conditions: 72 hours, read-out: IC 50 HL60
Summary of the method: as §1

[7] = tested on: Triticum aestivum cv. Hereward; test: Senescence inhibition on winter wheat leaf segments (chlorophyll retention); type: in vivo; conditions: for Concentration with highest activity: chlorophyll retention in excised wheat leaf tips, 96 h dark; for Activity (%) [10^−4 mol · l^−1 BAP = 100%]: chlorophyll retention, at concentration with highest activity
Summary of the method: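 Tip segments of the first leaf from 7-day wheat seedlings held, basal ends down, in cytokinin solutions (10^−8M to 10^−4M) for 96 h at 25° C in darkness. Chlorophyll extracted in 80% ethanol at 80° C, read at 665 nm; activity at best concentration given relative to 10^−4 M BAP (100%), means of five replicates.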

[8] = tested on: Amaranthus caudatus cotyledon/hypocotyl explants; test: Amaranthus bioassay (betacyanin content); type: in vivo; conditions: for Concentration with highest activity: 48 h dark; for Activity (%) [10^−5 mol · l^−1 BAP = 100%]: at concentration with highest activity
Summary of the method: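 Surface-sterilised Amaranthus caudatus var. atropurpurea seeds were germinated 72 h at 25° C. in darkness, then de-rooted. Cotyledon/hypocotyl explants (20 per dish) were incubated under green safe light on filter paper with 1 ml medium of 10 μmol NA2HPO4-KH2PO4, pH 6.8, 5 μmol tyrosine and cytokinin (10^-8M to 10^-4M) for 48 h at 25° C. in darkness. Betacyanin was extracted in […] acetic acid and measured by absorbance at 537 nm and 620 nm.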

SMILES	IC50 [1] [µM]	IC50 [2] [µM]	IC50 [3] [µM]	IC50 [4] [µM]	IC50 [5] [µM]	IC50 [6] [µM]	Concentration with highest activity [7]	Activity (%) [10^−4 mol · l^−1 BAP = 100%] [7] [%]	Concentration with highest activity [8]	Activity (%) [10^−5 mol · l^−1 BAP = 100%] [8] [%]
OC[C@H]1O[C@@H](n2cnc3c(NCc4ccc(Cl)cc4)ncnc32)[C@H](O)[C@@H]1O [4-chlorobenzylamino, 6-(4-chlorobenzylamino)purine riboside]	> 167	16.1	> 167	> 167	6.5	5.3	10^−4 mol · l^−1	104 ± 6	10^−5 mol · l^−1	35 ± 9
Cc1cccc(CNc2ncnc3c2ncn3[C@@H]2O[C@H](CO)[C@@H](O)[C@H]2O)c1 [3-methylbenzylamino, 6-(3-methylbenzylamino)purine riboside]	> 167	> 167	> 167	> 167	19.1	6.4	10^−4 mol · l^−1	143 ± 9	10^−5 mol · l^−1	103 ± 16
COc1cccc(CNc2ncnc3c2ncn3[C@@H]2O[C@H](CO)[C@@H](O)[C@H]2O)c1O [2-hydroxy-3-methoxybenzylamino, 6-(2-hydroxy-3-methoxybenzylamino)purine riboside]	> 167	19.2	27	> 167	0.3	0.15	10^−4 mol · l^−1	30 ± 8	10^−4 mol · l^−1	18 ± 5
OC[C@H]1O[C@@H](n2cnc3c(NCc4ccccc4Cl)ncnc32)[C@H](O)[C@@H]1O [2-chlorobenzylamino, 6-(2-chlorobenzylamino)purine riboside]	> 167	64	> 167	> 167	14.5	1.6	10^−4 mol · l^−1	119 ± 9	10^−5 mol · l^−1	113 ± 7
COc1cccc(CNc2ncnc3c2ncn3[C@@H]2O[C@H](CO)[C@@H](O)[C@H]2O)c1 [3-methoxybenzylamino, 6-(3-methoxybenzylamino)purine riboside]	> 167	> 167	> 167	> 167	7.6	4.9	10^−4 mol · l^−1	209 ± 8	10^−4 mol · l^−1	98 ± 10
OC[C@H]1O[C@@H](n2cnc3c(NCc4ccccc4F)ncnc32)[C@H](O)[C@@H]1O [2-fluorobenzylamino, 6-(2-fluorobenzylamino)purine riboside]	> 167	33.2	> 167	–	4.6	3.2	10^−4 mol · l^−1	118 ± 19	10^−4 mol · l^−1	96 ± 2
OC[C@H]1O[C@@H](n2cnc3c(NCc4ccc(F)cc4)ncnc32)[C@H](O)[C@@H]1O [4-fluorobenzylamino, 6-(4-fluorobenzylamino)purine riboside]	20	6.4	14	> 167	1.5	0.86	10^−4 mol · l^−1	148 ± 2	10^−5 mol · l^−1	71 ± 4
OC[C@H]1O[C@@H](n2cnc3c(NCc4cccc(Cl)c4)ncnc32)[C@H](O)[C@@H]1O [3-chlorobenzylamino, 6-(3-chlorobenzylamino)purine riboside]	> 167	30.4	> 167	> 167	1.6	0.75	10^−4 mol · l^−1	72 ± 8	10^−5 mol · l^−1	139 ± 12
OC[C@H]1O[C@@H](n2cnc3c(NCc4ccc(Cl)c(Cl)c4)ncnc32)[C@H](O)[C@@H]1O [3,4-dichlorobenzylamino, 6-(3,4-dichlorobenzylamino)purine riboside]	> 167	6.5	88.8	> 167	3	1.1	10^−4 mol · l^−1	151 ± 29	10^−4 mol · l^−1	68 ± 10
OC[C@H]1O[C@@H](n2cnc3c(NCc4cccc(Br)c4)ncnc32)[C@H](O)[C@@H]1O [3-bromobenzylamino, 6-(3-bromobenzylamino)purine riboside]	> 167	19.7	> 167	> 167	5	8	10^−4 mol · l^−1	89 ± 10	10^−4 mol · l^−1	151 ± 16
COc1ccccc1CNc1ncnc2c1ncn2[C@@H]1O[C@H](CO)[C@@H](O)[C@H]1O [2-methoxybenzylamino, 6-(2-methoxybenzylamino)purine riboside]	21.2	11.2	> 167	> 167	3.2	2.3	10^−4 mol · l^−1	198 ± 12	10^−5 mol · l^−1	86 ± 4
OC[C@H]1O[C@@H](n2cnc3c(NCc4cccc(F)c4)ncnc32)[C@H](O)[C@@H]1O [3-fluorobenzylamino, 6-(3-fluorobenzylamino)purine riboside]	> 167	7	16.6	> 167	4	0.92	10^−4 mol · l^−1	220 ± 16	10^−4 mol · l^−1	92 ± 6
Cc1ccccc1CNc1ncnc2c1ncn2[C@@H]1O[C@H](CO)[C@@H](O)[C@H]1O [2-methylbenzylamino, 6-(2-methylbenzylamino)purine riboside]	> 167	> 167	> 167	> 167	14	3.3	10^−4 mol · l^−1	142 ± 6	10^−5 mol · l^−1	105 ± 14
